Measured values reported in article PMC12586182 (Frontiers in Oncology, 2025).

Experiments:
Test in all cases: Cell viability assay (ATPlite)
Format in all cases: cell-based
Hs 578T = settings: Homo sapiens; Hs 578T cell line, 72 hours incubation
Outline: (§1)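 Cells grew 24 h, then received 9-point √10-fold compound series in duplicate (0.4% DMSO final) for 72 h. ATP content was read by ATPlite luminescence and normalized to vehicle controls as % viability. IC50 came from a four-parameter logistic fit; curves with F-value above 1.5 were invalidated, with IC50 then set at the top concentration.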

MCF-7 = settings: Homo sapiens, MCF7; MCF-7 cell line, 72 hours incubation
Outline: as §1

NCI-H2052 = settings: Homo sapiens; NCI-H2052 cell line, 72 hours incubation
Outline: as §1

SK-N-MC = settings: Homo sapiens; SK-N-MC cell line, 72 hours incubation
Outline: as §1

DoTc2 4510 = settings: Homo sapiens; DoTc2 4510 cell line, 72 hours incubation
Outline: as §1

SW900 = settings: Homo sapiens; SW900 cell line, 72 hours incubation
Outline: as §1

TOV-112D = settings: Homo sapiens, TOV112D; TOV-112D cell line, 72 hours incubation
Outline: as §1

SNU-5 = settings: Homo sapiens; SNU-5 cell line, 72 hours incubation
Outline: as §1

MDA-MB-453 = settings: Homo sapiens; MDA-MB-453 cell line, 72 hours incubation
Outline: as §1

RL95-2 = settings: Homo sapiens; RL95-2 cell line, 72 hours incubation
Outline: as §1

A-427 = settings: Homo sapiens; A-427 cell line, 72 hours incubation
Outline: as §1

Hs 852.T = settings: Homo sapiens; Hs 852.T cell line, 72 hours incubation
Outline: as §1

PC-3 = settings: Homo sapiens; PC-3 cell line, 72 hours incubation
Outline: as §1

HT = settings: Homo sapiens; HT cell line, 72 hours incubation
Outline: as §1

786-O = settings: Homo sapiens, 786-0; 786-O cell line, 72 hours incubation
Outline: as §1

K-562 = settings: Homo sapiens, K562; K-562 cell line, 72 hours incubation
Outline: as §1

RD-ES = settings: Homo sapiens; RD-ES cell line, 72 hours incubation
Outline: as §1

A-204 = settings: Homo sapiens, A204; A-204 cell line, 72 hours incubation
Outline: as §1

BL-70 = settings: Homo sapiens; BL-70 cell line, 72 hours incubation
Outline: as §1

VA-ES-BJ = settings: Homo sapiens; VA-ES-BJ cell line, 72 hours incubation
Outline: as §1

MIA PaCa-2 = settings: Homo sapiens; MIA PaCa-2 cell line, 72 hours incubation
Outline: as §1

OVCAR-3 = settings: Homo sapiens; OVCAR-3 cell line, 72 hours incubation
Outline: as §1

AsPC-1 = settings: Homo sapiens, ASPC1; AsPC-1 cell line, 72 hours incubation
Outline: as §1

SU-DHL-1 = settings: Homo sapiens; SU-DHL-1 cell line, 72 hours incubation
Outline: as §1

SNU-C2B = settings: Homo sapiens; SNU-C2B cell line, 72 hours incubation
Outline: as §1

Hs 746.T = settings: Homo sapiens, Hs746T; Hs 746.T cell line, 72 hours incubation
Outline: as §1

MM1.R = settings: Homo sapiens, MM.1R; MM1.R cell line, 72 hours incubation
Outline: as §1

L-82 = settings: Homo sapiens; L-82 cell line, 72 hours incubation
Outline: as §1

NCI-H460 = settings: Homo sapiens; NCI-H460 cell line, 72 hours incubation
Outline: as §1

MDA-MB-468 = settings: Homo sapiens; MDA-MB-468 cell line, 72 hours incubation
Outline: as §1

11-18 = settings: Homo sapiens; 11-18 cell line, 72 hours incubation
Outline: as §1

`O=C(c1ccc(Oc2ccccc2)cc1Cl)c1c[nH]c2ncnc(N[C@@H]3CC[C@@H](CO)OC3)c12` [nemtabrutinib] gave an IC50 (Hs 578T) of 11.4 µM, an IC50 (MCF-7) of 12.1 µM and an IC50 (NCI-H2052) of 5.24 µM. The IC50 (SK-N-MC) was 7.4 µM, the IC50 (DoTc2 4510) was 1.41 µM and the IC50 (SW900) was 2.29 µM. It also gave an IC50 (TOV-112D) of 2.76 µM, an IC50 (SNU-5) of 8.05 µM and an IC50 (MDA-MB-453) of 5.32 µM. It also gave an IC50 (RL95-2) of 1.18 µM, an IC50 (A-427) of 1.24 µM and an IC50 (Hs 852.T) of 4.02 µM. For the same molecule, the IC50 (PC-3) was 26.8 µM, the IC50 (HT) was over 31.6 µM and the IC50 (786-O) was 6.71 µM. The IC50 (K-562) was 2.57 µM, the IC50 (RD-ES) was 4.17 µM and the IC50 (A-204) was 6.75 µM. For the same molecule, the IC50 (BL-70) was 0.498 µM, the IC50 (VA-ES-BJ) was 7.98 µM and the IC50 (MIA PaCa-2) was 2.77 µM. For the same molecule, the IC50 (OVCAR-3) was 0.578 µM, the IC50 (AsPC-1) was 3.83 µM and the IC50 (SU-DHL-1) was 6.22 µM. It also gave an IC50 (SNU-C2B) of 2.92 µM, an IC50 (Hs 746.T) of 11.4 µM and an IC50 (MM1.R) of 8.23 µM. The IC50 (L-82) was 14 µM, the IC50 (NCI-H460) was 5.73 µM and the IC50 (MDA-MB-468) was 6.25 µM. For the same molecule, the IC50 (11-18) was 2.62 µM.
